Assay results: patent US9469650B2, “Melampomagnolide B derivatives” (BOARD OF TRUSTEES OF THE UNIVERSITY OF ARKANSAS, priority 2013, dated 2016)

Key:
[1] = test system: SR; assay: panel of 60 human tumor cell lines, growth inhibition (Leukemia)
[2] = test system: M14; assay: panel of 60 human tumor cell lines, growth inhibition (Melanoma); settings: M14
[3] = test system: SK-MEL-28; assay: as above; settings: SK-MEL-28
[4] = test system: UACC-257; assay: as above; settings: UACC-257
[5] = test system: UACC-62; assay: as above; settings: UACC-62
[6] = test system: SF-295; assay: panel of 60 human tumor cell lines, growth inhibition (CNS Cancer); settings: SF-295
[7] = test system: SNB-19; assay: as above; settings: SNB-19
[8] = test system: SNB-75; assay: as above; settings: SNB-75
[9] = test system: U251; assay: as above; settings: U251
[10] = test system: HT29; assay: panel of 60 human tumor cell lines, growth inhibition (Colon Cancer); settings: HT29
[11] = test system: A498; assay: panel of 60 human tumor cell lines, growth inhibition (Renal Cancer); settings: A498
[12] = test system: TK-10; assay: as above; settings: TK-10
[13] = test system: MDA-MB-468; assay: panel of 60 human tumor cell lines, growth inhibition (Breast Cancer); settings: MDA-MB-468
[14] = test system: OVCAR-3; assay: panel of 60 human tumor cell lines, growth inhibition (Ovarian Cancer); settings: OVCAR-3
[15] = test system: PC-3; assay: panel of 60 human tumor cell lines, growth inhibition (Prostate Cancer); settings: PC-3
[16] = test system: A549/ATCC; assay: panel of 60 human tumor cell lines, growth inhibition (Non-Small Cell Lung Cancer); settings: A549/ATCC
[17] = test system: NCI-H23; assay: as above; settings: NCI-H23
[18] = test system: NCI-H322M; assay: as above

C=C1C(=O)O[C@H]2[C@H]1CC/C(COC(=O)CCC(=O)N1CCC(C)CC1)=C\CC[C@@]1(C)O[C@@H]21 [JVM 2-70]
Percent Growth ([1]; Log10 Concentration −4.0): −38% | Percent Growth ([1]; Log10 Concentration −5.0): 6% | Percent Growth ([1]; Log10 Concentration −6.0): 84% | Percent Growth ([1]; Log10 Concentration −7.0): 102% | Percent Growth ([1]; Log10 Concentration −8.0): 101% | GI50 ([1]; NCI five dose): 2.72 µM | TGI ([1]; NCI five dose): 1.39E−5 | Percent Growth ([2]; Log10 Concentration −4.0): −81% | Percent Growth ([2]; Log10 Concentration −5.0): 21% | Percent Growth ([2]; Log10 Concentration −6.0): 84% | Percent Growth ([2]; Log10 Concentration −7.0): 94% | Percent Growth ([2]; Log10 Concentration −8.0): 91% | GI50 ([2]; NCI five dose): 3.44 µM | TGI ([2]; NCI five dose): 1.60E−5 | Percent Growth ([3]; Log10 Concentration −4.0): −79% | Percent Growth ([3]; Log10 Concentration −5.0): 4% | Percent Growth ([3]; Log10 Concentration −6.0): 95% | Percent Growth ([3]; Log10 Concentration −7.0): 100% | Percent Growth ([3]; Log10 Concentration −8.0): 89% | GI50 ([3]; NCI five dose): 3.1 µM | TGI ([3]; NCI five dose): 1.11E−5 | Percent Growth ([4]; Log10 Concentration −4.0): −86% | Percent Growth ([4]; Log10 Concentration −5.0): 23% | Percent Growth ([4]; Log10 Concentration −6.0): 83% | Percent Growth ([4]; Log10 Concentration −7.0): 92% | Percent Growth ([4]; Log10 Concentration −8.0): 91% | GI50 ([4]; NCI five dose): 3.57 µM | TGI ([4]; NCI five dose): 1.64E−5 | Percent Growth ([5]; Log10 Concentration −4.0): −87% | Percent Growth ([5]; Log10 Concentration −5.0): 33% | Percent Growth ([5]; Log10 Concentration −6.0): 92% | Percent Growth ([5]; Log10 Concentration −7.0): 94% | Percent Growth ([5]; Log10 Concentration −8.0): 97% | GI50 ([5]; NCI five dose): 5.15 µM | TGI ([5]; NCI five dose): 1.89E−5 | Percent Growth ([6]; Log10 Concentration −4.0): −72% | Percent Growth ([6]; Log10 Concentration −5.0): 74% | Percent Growth ([6]; Log10 Concentration −6.0): 93% | Percent Growth ([6]; Log10 Concentration −7.0): 93% | Percent Growth ([6]; Log10 Concentration −8.0): 89% | GI50 ([6]; NCI five dose): 14.7 µM | TGI ([6]; NCI five dose): 3.23E−5 | Percent Growth ([7]; Log10 Concentration −4.0): −80% | Percent Growth ([7]; Log10 Concentration −5.0): 73% | Percent Growth ([7]; Log10 Concentration −6.0): 95% | Percent Growth ([7]; Log10 Concentration −7.0): 96% | Percent Growth ([7]; Log10 Concentration −8.0): 95% | GI50 ([7]; NCI five dose): 14 µM | TGI ([7]; NCI five dose): 2.98E−5 | Percent Growth ([8]; Log10 Concentration −4.0): −85% | Percent Growth ([8]; Log10 Concentration −5.0): 57% | Percent Growth ([8]; Log10 Concentration −6.0): 80% | Percent Growth ([8]; Log10 Concentration −7.0): 81% | Percent Growth ([8]; Log10 Concentration −8.0): 72% | GI50 ([8]; NCI five dose): 11.2 µM | TGI ([8]; NCI five dose): 2.53E−5 | Percent Growth ([9]; Log10 Concentration −4.0): −90% | Percent Growth ([9]; Log10 Concentration −5.0): 90% | Percent Growth ([9]; Log10 Concentration −6.0): 99% | Percent Growth ([9]; Log10 Concentration −7.0): 95% | Percent Growth ([9]; Log10 Concentration −8.0): 95% | GI50 ([9]; NCI five dose): 16.7 µM | TGI ([9]; NCI five dose): 3.16E−5 | Percent Growth ([10]; Log10 Concentration −4.0): −87% | Percent Growth ([10]; Log10 Concentration −5.0): 19% | Percent Growth ([10]; Log10 Concentration −6.0): 103% | Percent Growth ([10]; Log10 Concentration −7.0): 106% | Percent Growth ([10]; Log10 Concentration −8.0): 99% | GI50 ([10]; NCI five dose): 4.28 µM | TGI ([10]; NCI five dose): 1.51E−5 | Percent Growth ([11]; Log10 Concentration −4.0): −92% | Percent Growth ([11]; Log10 Concentration −5.0): 29% | Percent Growth ([11]; Log10 Concentration −6.0): 67% | Percent Growth ([11]; Log10 Concentration −7.0): 54% | Percent Growth ([11]; Log10 Concentration −8.0): 58% | GI50 ([11]; NCI five dose): 2.77 µM | TGI ([11]; NCI five dose): 1.73E−5 | Percent Growth ([12]; Log10 Concentration −4.0): −97% | Percent Growth ([12]; Log10 Concentration −5.0): 9% | Percent Growth ([12]; Log10 Concentration −6.0): 109% | Percent Growth ([12]; Log10 Concentration −7.0): 106% | Percent Growth ([12]; Log10 Concentration −8.0): 97% | GI50 ([12]; NCI five dose): 3.9 µM | TGI ([12]; NCI five dose): 1.23E−5 | Percent Growth ([13]; Log10 Concentration −4.0): −69% | Percent Growth ([13]; Log10 Concentration −5.0): −33% | Percent Growth ([13]; Log10 Concentration −6.0): 52% | Percent Growth ([13]; Log10 Concentration −7.0): 92% | Percent Growth ([13]; Log10 Concentration −8.0): 88% | GI50 ([13]; NCI five dose): 1.06 µM | TGI ([13]; NCI five dose): 4.06E−6 | CC50 ([13]; read-out: LC50, NCI five dose): 29.8 µM | Percent Growth ([14]; Log10 Concentration −4.0): −96% | Percent Growth ([14]; Log10 Concentration −5.0): −2% | Percent Growth ([14]; Log10 Concentration −6.0): 88% | Percent Growth ([14]; Log10 Concentration −7.0): 105% | Percent Growth ([14]; Log10 Concentration −8.0): 109% | GI50 ([14]; NCI five dose): 2.85 to 6 µM | TGI ([14]; NCI five dose): 9.47E−6 | Percent Growth ([15]; Log10 Concentration −4.0): −72% | Percent Growth ([15]; Log10 Concentration −5.0): 66% | Percent Growth ([15]; Log10 Concentration −6.0): 94% | Percent Growth ([15]; Log10 Concentration −7.0): 93% | Percent Growth ([15]; Log10 Concentration −8.0): 94% | GI50 ([15]; NCI five dose): 13 µM | TGI ([15]; NCI five dose): 3.00E−5 | Percent Growth ([16]; Log10 Concentration −4.0): −68% | Percent Growth ([16]; Log10 Concentration −5.0): 79% | Percent Growth ([16]; Log10 Concentration −6.0): 93% | Percent Growth ([16]; Log10 Concentration −7.0): 96% | Percent Growth ([16]; Log10 Concentration −8.0): 97% | GI50 ([16]; NCI five dose): 15.8 µM | TGI ([16]; NCI five dose): 3.47E−5 | Percent Growth ([17]; Log10 Concentration −4.0): −70% | Percent Growth ([17]; Log10 Concentration −5.0): 33% | Percent Growth ([17]; Log10 Concentration −6.0): 94% | Percent Growth ([17]; Log10 Concentration −7.0): 101% | Percent Growth ([17]; Log10 Concentration −8.0): 95% | GI50 ([17]; NCI five dose): 5.24 µM | TGI ([17]; NCI five dose): 2.09E−5 | Percent Growth ([18]; Log10 Concentration −4.0): −83% | Percent Growth ([18]; Log10 Concentration −5.0): 93% | Percent Growth ([18]; Log10 Concentration −6.0): 102% | Percent Growth ([18]; Log10 Concentration −7.0): 108% | Percent Growth ([18]; Log10 Concentration −8.0): 102% | GI50 ([18]; NCI five dose): 17.6 µM | TGI ([18]; NCI five dose): 3.39E−5
